What all share (type): cell-based, Plasmodium falciparum
For test [1], the system named is protein translation in P. falciparum (Cam3.II-rev) schizonts. The test can be described thus: Protein translation assay (O-propargyl-puromycin incorporation). The following applies: read-out: IC50 (Translation). On the procedure:
(§1) 723 then fixed for 10 minutes (4% formaldehyde/0.02% glutaraldehyde in PBS). The click reaction was
(§2) 724 performed for 1 h in the presence of CuSO4 (0.1 mM), THPTA (0.5 mM) and sodium ascorbate (5 mM) to
(§3) 725 bring about azide-alkyne cycloaddition to Alexa Fluor 488 azide (0.1 µM). Flow cytometry was performed
(§4) 726 using the FITC and Cy™5.5 channels to detect the Alexa Fluor 488 and PI, respectively.
(§5) 729 Cam 3.II_Rev (25) trophozoite-infected RBCs (25-30 h p.i.) were incubated with inhibitor for 3 h at 10%
(§6) 730 hematocrit and 5% parasitemia. The RBC pellet was washed 3 x in PBS + cOmplete. Cells were centrifuged
(§7) 731 at 380 x g for 5 min and the pelleted cells lysed by resuspension in PBS + 0.05% saponin for 5 min on ice.

Test [2] concerns P. falciparum (Cam3.II-rev) schizont stage. Kind of test: 3 h drug pulse viability assay. The following applies: read-out: IC50 (Viability). On the procedure: 553 Sigma-Aldrich) for 48-72 h. For drug pulse assays, tightly synchronized parasites (1-1.5% parasitemia,
554 0.2% final hematocrit) were added to the plates and incubated for 3 h. Drugs were removed and the
555 parasitemia assessed in the trophozoite stage of the next cycle.
557 Compounds were tested against a range of drug resistant field isolates and laboratory strains using a
558 modified [3H]-hypoxanthine incorporation assay, as previously reported (46). Field isolates 7G8, Cam3.1,
559 Dd2, K1, TM90C2B and NF54 were obtained from MR4 (www.beiresources.org).
561 Mammalian cell culture experiments
562 The HepG2 (Human hepatocyte carcinoma) cell line was procured from ATCC (American Type
563 Culture Collection, Manassas, USA; HB-8065) and viability assessed using Cell Titer-GLO luminescent
564 cell viability assay reagents (Promega, catalogue number: G7570) (47, 48). For the assay, 2000 cells/well
565 were plated in 384-well plates 24 h prior to the experiment and incubated at 37°C in a CO2 incubator. The
566 medium was removed and cells were treated with fresh medium containing either vehicle (0.5% DMSO)
567 or serially diluted test compounds or doxorubicin (1.3 nM to 25 µM) in a final volume of 50 µl/well and
568 further incubated for 72 h at 37°C in a CO2 incubator.
569 were treated with 5 µl of 1% Triton X-100 (final assay conc. 0.1%). Following incubation, 25 µl of medium
570 was discarded and 25 µl of Cell Titer-GLO reagent was added to each well and the plate was kept on a plate
571 shaker for 15 min at 25°C with shaking at 300 rpm. Luminescence signals were measured in a Spectramax
572 M5 reader (Molecular Devices).
574 H1650 is a human lung cancer derived ATG7-null cell line (49) that can be used to assess effects on targets
576 adenocarcinoma; bronchoalveolar carcinoma). Other cells lines used are: H460 (NCI-H460; human lung;
577 carcinoma; large cell lung cancer; ATCC: HTB-177); and HCT116 (human colon; colorectal carcinoma;
578 ATCC: CCL-247; Lot : 5056139). […]
580 inhibitors and cell viability was assessed by comparing the ATP content in compound-treated wells with […]

In another test the test system is PfYRS knockdown line. Kind of test: Growth inhibition of aptamer-regulatable PfYRS knockdown line (luciferase, 72 h). As to conditions: for IC50: Plasmodium falciparum, read-out: IC50 against the PfYRS knockdown line (control compounds).
Description: 674 Generation and analysis of PfYRS knock-down transfectants
675 A conditional regulatable line for the cytosolic PfYRS (PF3D7_0807900) was generated by integrating the
676 gene regulatable system, TetR-DOZI-RNA aptamer module at the 3'-end of the target gene, in P. falciparum
677 parasites using CRISPR-Cas9 and homology-driven repair (55, 56). A line harbourbing an aptamer-
678 regulatable fluorescent protein (eYFP) integrated in the cg6 locus is used as the control (55). Transfection
679 into parasites was carried out by preloading RBCs with the donor vector as described previously (57).
680 Briefly, 50 μg of purified plasmid DNA was mixed with human RBCs and subjected to 8 square wave
681 electroporation pulses of 365 V for 1 ms each, separated by 0.1 s in a 0.2 cm cuvette. The plasmid DNA
682 preloaded cells were inoculated with NF54 expressing Cas9 and T7 RNA polymerase. […]
696 Stock solutions of ML901, DHA or borrelidin (Cayman Chemicals) were dispensed into 96-well U-bottom
697 BD Falcon™ plates and serially diluted in complete medium to yield final concentrations ranging from 20-
698 0.08 nM. Synchronous ring-stage YRScyt conditional knockdown line and the aptamer-regulatable control
699 line in varying aTc concentrations (high = 50 or 500 nM, low = 1 nM, and no aTc) were distributed into
700 the drug plate. Lowest drug treatment and a lethal dose of chloroquine (200 nM) served as reference
701 controls. Growth inhibition was analysed after 72 h using the Renilla-Glo(R) Luciferase Assay System (ref
702 no E2750 Promega) and the GloMax® Discover Multimode Microplate Reader (Promega), and IC50 values
703 were obtained from corrected dose-response curves using GraphPad Prism (version 8; GraphPad Software). […]
706 CRISPR/Cas9 was used to generate parasites encoding the S234C mutation in exon 2 of PfYRS, as shown
707 in Suppl Figure 6. Two guide RNAs (gRNA1: […] and gRNA2:
708 […]) were selected using Benchling (benchling.com), and cloned into the
709 pDC2-coCas9-gRNA plasmid essentially as described previously (58). A donor template of 645 bp,
710 encompassing the majority of the 708 bp exon 2, was synthesized (ThermoFisher) and cloned into the
711 AatII/EcoRI sites of both the pDC2-coCas9-gRNA1 and pDC2-coCas9-gRNA2 plasmids. In addition to
712 the TCC>TGC (S234C) mutation, additional silent shield mutations were introduced to prevent gRNA-
713 Cas9 complex binding, as shown in Suppl Figure 6. Ring-stage P. falciparum parasites (Dd2 strain) at 10%
714 parasitemia (150 µL of packed cells) were transfected with 50 µg of plasmid DNA using a BioRad Gene
715 Pulser II (310 V, 950 µF), and selected with 5 nM WR99210 (Jacobus Pharmaceuticals) for 8 days, after
716 which culture was continued without drug pressure until transfectants were obtained. Clones of the
717 PfYRSS234C mutant parasites were isolated by limiting dilution and verified by Sanger sequencing.
719 Protein translation assay
720 P. falciparum Cam 3.II_Rev (25) schizont- (43-48 h p.i.) infected RBCs were pre-incubated with inhibitor
Using a modification of a published procedure (14), the
722 cells were labelled with O-propargyl-puromycin (OPP; 4 µM) for 1 h, washed 3x (PBS +3% serum) and
as §1, §2, §3, §4, §5, §6, §7

The term IC50 denotes the concentration that inhibits the measured activity by half.

Where two headings read alike, the source gives them in different places. A value given as a limit tells only on which side of the number the result lay.

On to `CC1(C)N=C(N)N=C(N)N1OCCCOc1cc(Cl)c(Cl)cc1Cl` [WR99210], for which the IC50 in test [1] (schizont stage Cam3.II-rev, 1 h pre-incubation then OPP incorporation over next 2 h) is over 1000 nM; in test [2] (schizont stage Cam3.II-rev, 3 h exposure, viability at trophozoite stage of next cycle), 1.9 nM.
On to `C[C@@H]1C[C@H](C)C[C@H](C)[C@@H](O)CC(=O)O[C@H]([C@@H]2CCC[C@H]2C(=O)O)C/C=C/C=C(/C#N)[C@H](O)[C@@H](C)C1` [borrelidin], for which the values for the IC50 in the test with PfYRS knockdown line (high aTc (500 nM)), with PfYRS knockdown line (low aTc (1 nM)) and with PfYRS knockdown line (no aTc) were 0.07 nM, 0.07 ± 0.01 nM and 0.07 ± 0.01 nM, respectively. For the same compound, the “Fold change in IC50 (high aTc/ no aTc), PfYRS knockdown line (control compounds)” value in the test on PfYRS knockdown line (high aTc 500 nM) is on record as “no change”.
For `C[C@@H]1C[C@@H]([C@H](O)CC2CC(=O)NC(=O)C2)C(=O)[C@@H](C)C1` [cycloheximide], the half-maximal inhibitory concentration (IC50) was 2000 nM in test [1] (Plasmodium falciparum) and 3200 nM in test [2] (Plasmodium falciparum, 3 h).

(Values after publication PMC7613620, “Reaction hijacking of tyrosine tRNA synthetase as a whole-of-life-cycle antimalarial strategy” (Science (New York, N.Y.), 2022).)
